Paper PMC6150336, “Hepatotoxicity Induced by Sophora flavescens and Hepatic Accumulation of Kurarinone, a Major Hepatotoxic Constituent of Sophora flavescens in Rats” (Molecules : A Journal of Synthetic Chemistry and Natural …, 2017)
Like-named read-outs stand apart in the source and are kept apart here.

Legend:
HL-7702 cells = assay: Effect of kurarinone on triglyceride levels in HL-7702 cells; format: cell-based, human; conditions: HL 7702 cells exposed for 24 h
Description: HL-7702 cells were cultured in RPMI-1640 medium (Gibco, Grand Island, NY, USA) containing 10% fetal bovine serum (FBS) (Gibco, USA) in a humidified atmosphere of 5% CO2 at 37 °C. The cells were seeded in 24-well plates, cultured for 24 h, and incubated with kurarinone (1, 8, 16, 24, 32, 44, and 60 μM) dissolved in RPMI-1640 medium without FBS for 24 h. Triglyceride levels were determined using a triglyceride assay kit (Nanjing Jiancheng Bioengineering Institute) according to the manufacturer’s instructions.

[1] = method and reference not given; cited from earlier work
[2] = ESF tissue distribution study in rats; format: in vivo, rat; conditions: for AUC(0-t): male, rat
Description: Male rats were divided into five groups corresponding to five experimental time points (n = 3 in each group). Rats under urethane anesthesia were sacrificed by bleeding from the abdominal aorta and hepatic portal vein at 15 min, 30 min, 1 h, 2 h, and 4 h time points (3 rats/time point) after a p.o. dose of ESF (2.5 g/kg). The liver, kidneys, heart, skeletal muscles, small intestine, and bile were harvested and homogenized in threefold volume of ice-cold saline. Kurarinone levels in vivo in the plasma and liver were examined at the time points when blood biochemistry parameters were measured. Kurarinone and kurarinone glucuronides levels were detected by LC-MS/MS [24, 25].

[3] = AUC0–4h after oral administration of ESF (2.5 g/kg) in rats

## C=C(C)[C@H](CC=C(C)C)Cc1c(O)cc(OC)c2c1O[C@H](c1ccc(O)cc1O)CC2=O [Kurarinone, kurarinone]
HL-7702 cells; 1-60 μM
  Triglyceride accumulation: accumulated dose-dependently
HL-7702 cells; Homo sapiens, L02, read-out: EC50, increase of triglyceride
  EC50: 31.2 ± 2.47 µM
[1]
  log p: 5.6
[2]; ESF (2.5 g/kg) orally in rats
  Exposure of liver compared with plasma: much higher
[2]; ESF-treated rats
  Form of kurarinone in visceral organs: predominant
[2]; bile, AUC0–4h after oral administration of ESF (2.5 g/kg) in rats, read-out: AUC0–t Biliary Secretion
  AUC(0-t): 0.8 µM·h
[2]; heart, AUC0–4h after oral administration of ESF (2.5 g/kg) in rats, read-out: AUC0–t Heart
  AUC(0-t): 4.7 µM·h
[2]; hepatic portal vein plasma, AUC0–4h after oral administration of ESF (2.5 g/kg) in rats, read-out: AUC0–t Protal Plasma
  AUC(0-t): 4.4 µM·h
[2]; kidney, AUC0–4h after oral administration of ESF (2.5 g/kg) in rats, read-out: AUC0–t Kidney
  AUC(0-t): 5.4 µM·h
[2]; liver, AUC0–4h after oral administration of ESF (2.5 g/kg) in rats, read-out: AUC0–t Liver
  AUC(0-t): 45.5 µM·h
[2]; skeletal muscle, AUC0–4h after oral administration of ESF (2.5 g/kg) in rats, read-out: AUC0–t Skeletal Muscle
  AUC(0-t): 6.9 µM·h
[2]; small intestine, AUC0–4h after oral administration of ESF (2.5 g/kg) in rats, read-out: AUC0–t Intestine
  AUC(0-t): 21.4 µM·h
[2]; systemic (body) plasma, AUC0–4h after oral administration of ESF (2.5 g/kg) in rats, read-out: AUC0–t Body Plasma
  AUC(0-t): 2.4 µM·h

## kurarinone glucuronide
[2]; [3]
  AUC0–t Biliary Secretion: 93.3 µM·h
  AUC0–t Body Plasma: 15.3 µM·h
  AUC0–t Heart: 0.1 µM·h
  AUC0–t Intestine: 2.2 µM·h
  AUC0–t Kidney: 0.7 µM·h
  AUC0–t Liver: 1.4 µM·h
  AUC0–t Protal Plasma: 25.0 µM·h
  AUC0–t Skeletal Muscle: 0.4 µM·h
[2]; ESF-treated rats
  Form of kurarinone in plasma and bile: dominant form
